The text below walks through data of US20200289482A1, “CYSTIC FIBROSIS TRANSMEMBRANE CONDUCTANCE REGULATOR MODULATORS FOR TREATING AUTOSOMAL DOMINANT POLYCYSTIC KIDNEY DISEASE” (The Johns Hopkins University, priority 2017, published 2020).

One assay deals with Hsp40. Nature of the assay: Western blot of Hsp40 in kidney tissue lysates. The assay is classed as in vivo, mouse. The settings on record: cyst induced pkd−/− mice, VX-809 30 mg/kg BW. As for the experimental part: (§1) FIG. 7A, FIG. 7B, FIG. 7C, FIG. 7D, FIG. 7E, and FIG. 7F show chaperone expression is altered in mice by VX-809. (FIG. 7A-FIG. 7B) Representative Western blot images of HSP27, 70, 90 and HSP40 in lysates of kidney tissue from no cyst induced (ND), cyst induced with Doxycycline (D) or cyst induced pkd−/− mice treated with VX-809 (D+VX-809) 30 mg/kg BW. (FIG. 7C, FIG. 7D, FIG. 7E, and FIG. 7F) Columns represent averages±standard errors of HSP27, 70, 90 and HSP40 expression. Data were analyzed by non-parametric t-test. n=4 for each treated and control groups. Black lines between lanes represent representative experiments from the same gel. *P<0.05; **P<0.01; To facilitate their growth in the kidney, cysts have developed an altered network of proteins that most likely serves to protect them from stress (34). Next, it was determined whether VX-809 would alter the levels of Hsps in pkd−/− mice and in PN cells. […] Hsp 27, 70 and 90 are all elevated in cystic kidneys compared to normal controls. […] There is no change in Hsp 40. […] Both sets of data are consistent with an alteration in the heat shock response to cyst growth.

The subject of assay [1] is kidneys of Pkd1^fl/fl; Pax8^rtTA; TetO-cre mice. Nature of the assay: Ki67 staining of kidney sections (proliferation). The assay is classed as in vivo, mouse. To be noted: VX-809 30 mg/kg to mice vs DMSO-treated mice; PN21 kidney sections. An excerpt:
FIG. 3A, FIG. 3B, FIG. 3C, and FIG. 3D show cell proliferation is reduced by VX-809. (FIG. 3A-FIG. 3B) Proliferation in kidneys of Pkd1^fl/fl; Pax8^rtTA; TetO-cre mice. Representative images of Ki67 (a cellular marker for proliferation) staining of PN21 kidney sections from DMSO- and VX-809-treated mice. Arrows indicate Ki67-positive cells. Pictures were acquired with a Zeiss microscope equipped with 20× objective. (FIG. 3C) Summary data for Ki67-positive cells. Columns represent averages±standard errors of DMSO (vehicle)-treated (n=3) and VX-809-treated (n=3) mice. Statistical analysis was performed using a two-tailed Student's t test. (FIG. 3D) Proliferation in PN cells. PN cells were treated with VX-809 or DMSO). The bromodeoxyuridine (BrdU) concentration in the cells was measured by using a BrdU cell proliferation assay kit (Millipore Sigma #2750) according to the manufacturer's protocol. Columns represent averages±SEs of the OD of BrdU at 450/550 […]. Data were analyzed using Student's t-test, with n=5-7. Methods were described previously (62). […]; **P<0.01;
A hallmark of the cysts in ADPKD is an increase in proliferation in response to cAMP (23). Therefore, it was determined whether VX-809 would affect proliferation.

A further assay relates to Hsp90. The assay can be described thus: Western blot of Hsp90 in kidney tissue lysates. It is filed as in vivo, mouse. The settings on record: cyst induced pkd−/− mice, VX-809 30 mg/kg BW. As to the method:
as §1

For assay [2], the system named is model ADPKD cell line (PN=pkd−/− knockout). Nature of the assay: In vitro cystogenesis (3D Matrigel culture), cyst size. It is filed as cell-based, mouse. Also on record: cyst size, drug treatment regime incl. established cysts: dose or concentration left out as unconfirmed.
The next assay has as its system NHE3. Nature of the assay: NHE3 expression in PN cells. It is filed as cell-based, mouse. To be noted: PN cells treated with VX-809 vs PN cells. As for the experimental part: FIG. 14A and FIG. 14B show NHE3 expression in PN cells treated with VX-809.
The expression and activity of […] were evaluated. Specifically, NHE3 expression was evaluated in PN cells that were treated with VX-809. […] was also studied in PN, PH, and PN cells treated with VX-809. […] Next, NHE3 activity was evaluated in PN/PH cells or PN cells treated with VX-809. NHE3 activity was increased in PN cells treated with VX-809, as compared to PN cells (FIG. 16A). NHE3 activity was higher in control PH cells than in PN cells (FIG. 16B). […] NHE3 activity was increased in both VX-809 treated PN cells and control PH cells, as compared to control PN cells (FIG. 16C).

A further assay has as its system Hsp70. Nature of the assay: Cycloheximide chase, disappearance of Hsp70 in PN cells. It is filed as cell-based, mouse. To be noted: VX-809 10 μM with cycloheximide 25 μM. As to the method:
FIG. 9A, FIG. 9B, FIG. 9C, FIG. 9D, FIG. 9E, FIG. 9F, FIG. 9G, and FIG. 9H show Hsp27, HSp70, and Hsp90 expression in PN cells treated with VX-809 and/or cycloheximide. (A) Pkd1 null (PN) cells were treated with VX-809 (10 μM) and/or with cycloheximide (25 μM) for indicated time points before being harvested for the assay. (FIG. 9A) Western blot showing expression of Hsp27, Hsp70, and Hsp90 in VX-809-(16 h), cycloheximide-treated, or control PN cells. ((FIG. 9B. (FIG. 9C, and (FIG. 9D) Columns represent averages±standard errors of Hsp27, Hsp70, and Hsp90 expression in cells treated with VX-809 and/or cycloheximide. ((FIG. 9E) Western blot showing expression of Hsp27, Hsp70, and Hsp90 in PN cells treated with VX-809+cycloheximide or control PN cells. ((FIG. 9F, (FIG. 9G, and (FIG. 9H) Columns represent averages±standard errors of Hsp27, Hsp70, and Hsp90 expression in cells treated only with cycloheximide or in control PN cells. Data were analyzed by non-parametric t-test. The experiments were repeated 3-5 times. *P<0.05, **P<0.01;
To gain more insight into the mechanism whereby VX-809 alters Hsp protein levels, translation was inhibited by using cycloheximide (35) and the disappearance of the three Hsps was monitored. […] Hsp 90 was reduced by approximately 25%, and Hsp27 was unchanged.

As for lumacaftor [VX-809], the “Hsp40 expression in kidneys” value in the assay on Hsp40 is “no change”. For the same substance, in assay [1], the “cell proliferation (Ki67-positive cells)” value is “significantly inhibit cell proliferation”. Also, the “Hsp90 expression in kidneys” value with Hsp90 was “significantly less expression”. For the same substance, the cyst growth result in assay [2] (10 μM, plus or minus forskolin, treated on Days 0, 2, 4, 6, 8, 10, 12, 14, pictures Day 16) was “reduce cyst growth equally well in the presence and absence of forskolin”. Besides, in assay [2] (every other day, or from Days 9-16 on established cysts, in the presence of forskolin), the “cyst size, drug treatment regime incl. established cysts” value is given as “dramatically reducing cyst size”. The NHE3 expression entry in the assay with NHE3 is “significantly increased”. For the same substance, the “Hsp70 levels over the 8-h period relative to time 0” value in the assay on Hsp70 is recorded as “approximately half the level observed at time 0”.
